Source: patent publication US20210380548A1, “Fused [1,2,4]Thiadiazine Derivatives Which Act as KAT Inhibitors of the MYST Family” (CTxT Pty Limited, priority 2017, published 2021)

Assays:
MOZ-KAT6A [1] = biological target: T1, MOZ-KAT6A (Homo sapiens, UniProt Q92794, A567V); experiment: Acetyltransferase biochemical assay (AlphaScreen), KAT6A; settings: Table 2 (MOZ-KAT6A); 10 μM Acetyl coenzyme A, histone H3.1, 5 nM enzyme
T1 construct: encoding amino acid residues 507 to 778 (Uniprot Q92794-1) of human KAT6A; made in house; host or cells: E. coli BL21 DE3
T1 sequence (Q92794 507-778 A567V limits assumed): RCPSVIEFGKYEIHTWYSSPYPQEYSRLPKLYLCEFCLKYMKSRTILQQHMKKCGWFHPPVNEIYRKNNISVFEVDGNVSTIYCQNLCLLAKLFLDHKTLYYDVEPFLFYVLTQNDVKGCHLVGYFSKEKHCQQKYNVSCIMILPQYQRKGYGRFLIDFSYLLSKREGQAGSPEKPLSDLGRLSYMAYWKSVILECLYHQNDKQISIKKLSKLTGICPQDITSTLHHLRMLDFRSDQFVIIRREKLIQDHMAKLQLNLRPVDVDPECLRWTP

TIP60-KAT5 [2] = biological target: T2, TIP60-KAT5 (Homo sapiens, UniProt Q92993); experiment: Acetyltransferase biochemical assay (AlphaScreen), KAT5; settings: Table 1 (TIP60-KAT5); 0.4 μM Acetyl coenzyme A, histone H4, 10 nM enzyme
T2 construct: encoding amino acid residues 2 to 461 (Uniprot Q92993-2) of human KAT5 isoform; made in house; host or cells: E. coli BL21 DE3
T2 sequence (Q92993 2-461 isoform Q92993-2): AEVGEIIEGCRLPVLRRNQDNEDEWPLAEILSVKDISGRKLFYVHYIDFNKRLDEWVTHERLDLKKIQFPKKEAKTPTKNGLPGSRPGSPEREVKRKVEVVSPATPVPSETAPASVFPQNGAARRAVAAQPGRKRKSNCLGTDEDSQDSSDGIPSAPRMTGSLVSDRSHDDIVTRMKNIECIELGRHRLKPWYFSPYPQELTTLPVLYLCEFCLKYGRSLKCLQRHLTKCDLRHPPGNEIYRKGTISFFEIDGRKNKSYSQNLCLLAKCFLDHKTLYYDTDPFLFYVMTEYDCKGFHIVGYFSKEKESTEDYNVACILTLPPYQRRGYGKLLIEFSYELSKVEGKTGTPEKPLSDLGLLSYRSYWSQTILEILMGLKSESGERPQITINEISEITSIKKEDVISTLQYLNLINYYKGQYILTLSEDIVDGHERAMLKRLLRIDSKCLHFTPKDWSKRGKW

MOF-KAT8 [3] = biological target: T3, MOF-KAT8 (Homo sapiens, UniProt Q9H7Z6); experiment: Revised Acetyltransferase Biochemical Assay, KAT8
T3 sequence (Q9H7Z6 177-447): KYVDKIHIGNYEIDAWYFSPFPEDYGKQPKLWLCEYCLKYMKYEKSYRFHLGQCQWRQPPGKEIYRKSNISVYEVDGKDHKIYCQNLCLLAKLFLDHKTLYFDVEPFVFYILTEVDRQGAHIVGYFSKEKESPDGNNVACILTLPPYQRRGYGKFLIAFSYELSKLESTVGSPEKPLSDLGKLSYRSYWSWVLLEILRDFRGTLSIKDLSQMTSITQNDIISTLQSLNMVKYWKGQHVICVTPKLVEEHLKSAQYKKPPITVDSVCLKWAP

TIP60-KAT5 [4] = biological target: T2, TIP60-KAT5; experiment: Revised Acetyltransferase Biochemical Assay, KAT5; settings: 10 nM KAT5, 1 μM AcCoA, 100 nM histone H4, 90 min
MOZ-KAT6A [5] = biological target: T1, MOZ-KAT6A; experiment: Revised Acetyltransferase Biochemical Assay, KAT6A; settings: Table 8 (MOZ-KAT6A), 1 μM Acetyl coenzyme A
HBO-KAT7 [6] = biological target: T4, HBO-KAT7 (Homo sapiens, UniProt O95251); experiment: Acetyltransferase biochemical assay (AlphaScreen), KAT7; settings: Table 3 (HBO-KAT7); 0.4 μM Acetyl coenzyme A, histone H3.1, 40 nM enzyme
T4 construct: encoding amino acid residues 325 to 611 (Uniprot 095251-1) of human KAT7; made in house; host or cells: E. coli BL21 DE3 RIL
T4 sequence (O95251 with tags, fused parts or gaps): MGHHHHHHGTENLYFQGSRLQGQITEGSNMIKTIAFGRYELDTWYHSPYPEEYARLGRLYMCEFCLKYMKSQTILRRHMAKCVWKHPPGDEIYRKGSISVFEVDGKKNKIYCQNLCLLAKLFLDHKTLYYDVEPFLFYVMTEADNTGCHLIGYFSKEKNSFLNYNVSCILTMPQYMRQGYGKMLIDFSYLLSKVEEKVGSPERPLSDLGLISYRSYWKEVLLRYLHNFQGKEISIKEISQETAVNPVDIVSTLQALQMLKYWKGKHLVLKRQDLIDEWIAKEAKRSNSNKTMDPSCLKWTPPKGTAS

MOF-KAT8 [7] = biological target: T3, MOF-KAT8; experiment: Acetyltransferase biochemical assay (AlphaScreen), KAT8; settings: Table 4 (MOF-KAT8); 0.4 μM Acetyl coenzyme A, histone H4, 20 nM enzyme
[8] = system: histone H3K23 acetylation (KATE mediated) in U2OS cells; experiment: Histone H3 Lysine 23 Acetylation Biomarker Assay (U2OS); assay type: cell-based; settings: Homo sapiens, 96 well, 24 hours incubation
Method: Compounds may be tested for their ability to inhibit acetylation of the histone H3K23 marker, which is KATE mediated, in the following assay:
The cell line U2OS was seeded at a density of 9,000 cells per well in 96 well optical quality tissue culture plates in RPMI medium and 10% foetal bovine serum, and allowed to adhere for 24 hours under standard culture conditions (37 degree Celsius, 5% CO2). At the end of this period the medium was aspirated. Compound dilutions prepared in DMSO were added to medium, with negative control wells reserved for treatment with DMSO only and 100% inhibition positive controls receiving a potent inhibitor compound (e.g. cas 2055397-28-7, benzoic acid, 3-fluoro-5-(2-pyridinyl)-, 2-[(2-fluorophenyl)sulfonyl]hydrazide) (Baell, J., Nguyen, H. N., Leaver, D. J., Cleary, B. L., Lagiakos, H. R., Sheikh, B. N., Thomas. T. J., Aryl sulfonohydrazides, WO2016198507A1, 2016) at 10 μM concentration and 200 μL transferred to the cells. After incubation for 24 hours, the cells were fixed with 3.7% formaldehyde in PBS for 20 minutes at room temperature, washed (5×5 minutes) with phosphate buffer saline containing 0.1% Tween 20 and blocked with Odyssey blocking buffer (LI-COR, Lincoln, Nebr.) containing 0.1% TritonX100. Anti-H3K23ac specific antibody (Abcam ab177275) in Odyssey blocking buffer containing 0.1% Tween 20 was added and incubated for 16 hours at 4 degree Celsius. After washing (as above), a secondary antibody labelled with Alexa647 dye (LifeTechnologies) and Hoechst 33342 (1 μg/mL, SigmaAldrich) were added for 1 hour incubation. Plates were washed as previously and read on a PerkinElmer Phenix high content imaging platform. Using a Columbus image analysis pipeline, individual nuclei were located by Hoechst 33342 stain and the acetylation level was calculated from the Alexa647-related intensity in the same area. The resulting mean intensity per cell was directly converted to percent inhibition relative to controls on the same plate and the data fitted against a four-parameter logistic model to determine the 50% inhibitory concentration (IC50).

HBO-KAT7 [9] = biological target: T4, HBO-KAT7; experiment: Revised Acetyltransferase Biochemical Assay, KAT7; settings: Table 9 (HBO-KAT7), 1 μM Acetyl coenzyme A
QKF-KAT6B = biological target: T5, QKF-KAT6B (Homo sapiens, UniProt Q8WYB5); experiment: Revised Acetyltransferase Biochemical Assay, KAT6B; settings: 8 nM KAT6B, 1 μM AcCoA, 100 nM histone H3.1, 90 min
T5 construct: purchased SignalChem K315-381BG
T5 sequence (Q8WYB5 whole entry): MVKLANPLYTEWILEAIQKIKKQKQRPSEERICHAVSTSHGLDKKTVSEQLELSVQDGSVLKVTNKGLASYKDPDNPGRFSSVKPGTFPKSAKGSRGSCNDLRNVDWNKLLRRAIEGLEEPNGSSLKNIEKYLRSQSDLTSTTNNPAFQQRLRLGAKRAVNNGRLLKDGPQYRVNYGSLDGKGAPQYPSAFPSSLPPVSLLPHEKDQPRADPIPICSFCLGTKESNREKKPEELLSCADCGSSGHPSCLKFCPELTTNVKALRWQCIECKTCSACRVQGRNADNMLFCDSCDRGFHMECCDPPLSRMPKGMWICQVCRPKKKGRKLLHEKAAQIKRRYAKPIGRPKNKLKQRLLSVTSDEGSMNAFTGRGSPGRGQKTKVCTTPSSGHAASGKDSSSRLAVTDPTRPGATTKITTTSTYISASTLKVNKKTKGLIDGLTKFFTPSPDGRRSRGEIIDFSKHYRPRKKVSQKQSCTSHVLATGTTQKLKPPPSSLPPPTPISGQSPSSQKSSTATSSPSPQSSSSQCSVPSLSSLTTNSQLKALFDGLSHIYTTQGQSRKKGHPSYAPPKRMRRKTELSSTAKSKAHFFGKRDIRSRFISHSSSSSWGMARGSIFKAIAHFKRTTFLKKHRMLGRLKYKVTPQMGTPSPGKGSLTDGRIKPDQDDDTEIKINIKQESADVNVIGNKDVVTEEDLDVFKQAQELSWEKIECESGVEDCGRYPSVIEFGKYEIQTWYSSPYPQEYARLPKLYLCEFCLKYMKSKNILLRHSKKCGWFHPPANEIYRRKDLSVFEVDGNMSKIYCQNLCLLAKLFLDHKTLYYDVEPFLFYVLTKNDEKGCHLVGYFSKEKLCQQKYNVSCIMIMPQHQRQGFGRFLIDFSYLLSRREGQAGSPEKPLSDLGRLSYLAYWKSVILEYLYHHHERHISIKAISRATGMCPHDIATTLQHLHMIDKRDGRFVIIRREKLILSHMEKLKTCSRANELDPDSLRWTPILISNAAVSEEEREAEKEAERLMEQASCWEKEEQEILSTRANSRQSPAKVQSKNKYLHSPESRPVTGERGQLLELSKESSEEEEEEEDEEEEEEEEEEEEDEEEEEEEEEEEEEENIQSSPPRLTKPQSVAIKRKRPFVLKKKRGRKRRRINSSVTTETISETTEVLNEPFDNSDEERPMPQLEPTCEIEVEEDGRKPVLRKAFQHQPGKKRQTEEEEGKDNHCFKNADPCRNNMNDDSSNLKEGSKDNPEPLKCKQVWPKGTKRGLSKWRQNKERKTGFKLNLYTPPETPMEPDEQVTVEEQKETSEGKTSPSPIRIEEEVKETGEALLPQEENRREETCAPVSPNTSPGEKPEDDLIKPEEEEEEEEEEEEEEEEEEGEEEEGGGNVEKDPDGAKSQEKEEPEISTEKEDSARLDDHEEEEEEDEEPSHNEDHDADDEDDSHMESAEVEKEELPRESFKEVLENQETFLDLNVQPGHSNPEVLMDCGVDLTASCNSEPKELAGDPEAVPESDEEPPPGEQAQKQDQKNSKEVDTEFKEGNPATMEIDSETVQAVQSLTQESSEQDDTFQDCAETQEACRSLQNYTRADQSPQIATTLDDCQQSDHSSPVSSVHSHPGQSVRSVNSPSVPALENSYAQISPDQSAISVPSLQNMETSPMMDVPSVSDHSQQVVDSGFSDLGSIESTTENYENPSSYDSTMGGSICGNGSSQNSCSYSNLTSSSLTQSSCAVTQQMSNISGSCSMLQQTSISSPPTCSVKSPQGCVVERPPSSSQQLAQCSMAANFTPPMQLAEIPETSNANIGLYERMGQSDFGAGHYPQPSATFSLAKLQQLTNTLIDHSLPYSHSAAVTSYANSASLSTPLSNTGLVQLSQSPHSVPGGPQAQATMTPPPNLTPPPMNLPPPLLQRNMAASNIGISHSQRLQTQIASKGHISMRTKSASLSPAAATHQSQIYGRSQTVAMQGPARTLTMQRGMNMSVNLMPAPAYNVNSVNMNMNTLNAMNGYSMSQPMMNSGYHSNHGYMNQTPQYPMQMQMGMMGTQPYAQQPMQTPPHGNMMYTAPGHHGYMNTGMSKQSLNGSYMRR
From the text: KAT6B was obtained from SignalChem, catalog ID: K315-381BG

[10] = system: histone H2A.Z Lysine 7 acetylation (TIP60 mediated) in U2OS cells; experiment: H2A.Z Lysine 7 Acetylation Biomarker Assay (384-well, U2OS); assay type: cell-based; settings: Homo sapiens, serum free medium, 24 hours incubation
Outline: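 U2OS cells (3,000/well) were treated with compound for 24 h after a serum-free wash, then fixed. They were stained with anti-H2A.ZK7ac, an AlexaFluor 488 secondary and Hoechst. High-content imaging gave mean nuclear intensity per cell, converted to percent inhibition against on-plate controls, and IC50 came from a four-parameter logistic fit.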

[11] = system: histone H3 Lysine 14 acetylation (HBO1 mediated) in U2OS cells; experiment: Histone H3 Lysine 14 Acetylation Biomarker Assay (384-well, U2OS); assay type: cell-based; settings: Homo sapiens, serum free medium, 24 hours incubation
Outline: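 U2OS cells in serum-free medium treated with compound 24 h; DMSO and 10 μM reference inhibitor as 0% and 100% controls. Fixed cells immunostained for H3K14ac (AlexaFluor 488) with Hoechst nuclear mask, imaged by high-content analysis; per-cell intensity converted to % inhibition, IC50 by four-parameter logistic fit.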

SMILES	IC50 (MOZ-KAT6A [1])	IC50 (TIP60-KAT5 [2])	IC50 (MOF-KAT8 [3])	IC50 (TIP60-KAT5 [4])	IC50 (MOZ-KAT6A [5])	IC50 (HBO-KAT7 [6])	IC50 (MOF-KAT8 [7])	IC50 [8]	IC50 (HBO-KAT7 [9])	IC50 (QKF-KAT6B)	IC50 [10]	IC50 [11]
O=C(NCC(c1ccccc1)c1ncco1)C1=Nc2ccc(-c3cn[nH]c3)cc2S(=O)(=O)N1 (centres unmarked) [Example 26, N-(2-(Oxazol-2-yl)-2-phenylethyl)-7-(1H-pyrazol-4-yl)-2H-benzo[e][1,2, 4]thiadiazine-3-carboxamide 1,1-dioxide]	28.7 nM	1660 nM	39900 nM	5940 nM	41 nM	1480 nM	23700 nM	1080 nM	5070 nM	120 nM		
CNC(=O)c1ccc2c(c1)S(=O)(=O)NC(C(=O)NCC(c1ccccc1)c1ncco1)=N2 (centres unmarked) [Example 32, N^7-Methyl-N^3-(2-(oxazol-2-yl)-2-phenylethyl)-2H-benzo[e][1,2,4]thiadiazine-3,7-dicarboxamide 1,1-dioxide]	49.8 nM	5040 nM	> 125000 nM	5330 nM	30 nM	4640 nM	74100 nM	> 10000 nM	356 nM	155 nM		
O=C(NCC(c1ccccc1)c1nccs1)C1=Nc2ccc(Cl)cc2S(=O)(=O)N1 (centres unmarked) [Example 166]			36800 nM	714 nM	7 nM			93 nM	183 nM	72 nM	5350 nM	611 nM
COc1cc(C)cc(C(CNC(=O)C2=Nc3ccc(I)cc3S(=O)(=O)N2)c2ncco2)c1 (centres unmarked) [Example 196, 7-iodo-N-(2-(3-methoxy-5-methylphenyl)-2-(oxazol-2-yl)ethyl)-2H-benzo[e][1,2,4]thiadiazine-3-carboxamide 1,1-dioxide]			78600 nM	818 nM	80 nM			1010 nM	25 nM	991 nM	882 nM	95 nM
O=C(NCCC1CCCCC1)C1=Nc2ccc(-c3c[nH]nn3)cc2S(=O)(=O)N1 [Example 201]				43700 nM	268 nM			> 10000 nM	56500 nM	5260 nM	> 40000 nM	> 40000 nM
O=C(NCCC1CCCCC1)C1=Nc2ccc(I)cc2S(=O)(=O)N1 [Example 204]			> 125000 nM	> 125000 nM	122 nM		> 125000 nM	> 10000 nM	59500 nM	> 125000 nM	> 40000 nM	
Cc1cc(O)cc(C(CNC(=O)C2=Nc3ccc(Cl)cc3S(=O)(=O)N2)c2ncco2)c1 (centres unmarked) [Example 221, 7-Chloro-N-(2-(3-hydroxy-5-methylphenyl)-2-(oxazol-2-yl)ethyl)-2H-benzo[e][1,2,4]thiadiazine-3-carboxamide 1,1-dioxide]				1570 nM	572 nM			> 10000 nM	72 nM	4340 nM	6870 nM	1660 nM
Cc1cccc(C(CNC(=O)C2=Nc3ccc(I)cc3S(=O)(=O)N2)c2ncco2)c1 (centres unmarked) [Example 233, 7-iodo-N-(2-(oxazol-2-yl)-2-(m-tolyl)ethyl)-2H-benzo[e][1,2,4]thiadiazine-3-carboxamide 1,1-dioxide]			9250 nM	154 nM	13 nM	38 nM	6130 nM		14 nM	254 nM	1990 nM	3200 nM
O=C(NCC(F)(F)c1ccccc1)C1=Nc2ccc(I)cc2S(=O)(=O)N1 [Example 238, N-(2,2-difluoro-2-phenylethyl)-7-iodo-2H-benzo[e][1,2,4]thiadiazine-3-carboxamide 1,1-dioxide]			25600 nM	1810 nM	188 nM		41400 nM		881 nM	5870 nM		13700 nM
